“And” between values parts separate entries of the source, which are not always exact repeats. Identical values can stand only once. Inconclusive results and toxic doses are left out. Rule for the calls: active = survival T/C of 150% or more; inactive = T/C below 125% in these data.
Test system: BDF1 mice, B16 melanoma ip, median survival T/C
Experiment: NCI In Vivo Anticancer Drug Screen. Data for tumor model B16 Melanoma (intraperitoneal) in B6D2F1 (BDF1) mice
Details: endpoint: median survival time, higher = longer survival
Method in brief: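 Each result divides a survival or tumor-size measurement in the compound-treated group by the same measurement in the vehicle group.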

[1] = dose: 100.0 mg/kg/injection, schedule: Q01DX009 (ip), vehicle: Klucel (hydroxypropylcellulose) (HPC)
[2] = dose: 200.0 mg/kg/injection, schedule: Q01DX009 (ip), vehicle: Klucel (hydroxypropylcellulose) (HPC)
[3] = dose: 400.0 mg/kg/injection, schedule: Q01DX009 (ip), vehicle: Klucel (hydroxypropylcellulose) (HPC)
[4] = dose: 100.0 mg/kg/injection, schedule: Q01DX009 (ip), vehicle: saline with Tween-80

Measured: T/C

C1CN1c1nc(N2CC2)nc(N2CC2)n1
inactive: dose: 0.05 mg/kg/injection, schedule: Q01DX009 (ip), vehicle: saline 97 % of control and 108 % of control | dose: 0.06 mg/kg/injection, schedule: Q01DX009 (ip), vehicle: saline 103 % of control | dose: 0.06 mg/kg/injection, schedule: Q01DX009 (ip), vehicle: suspension in saline 103 % of control | dose: 0.1 mg/kg/injection, schedule: Q01DX009 (ip), vehicle: saline 103 % of control and 109 % of control and 120 % of control | dose: 0.12 mg/kg/injection, schedule: Q01DX009 (ip), vehicle: saline with Tween-80 107 % of control | dose: 0.12 mg/kg/injection, schedule: Q01DX009 (ip), vehicle: suspension in saline 100 % of control | dose: 0.13 mg/kg/injection, schedule: Q01DX009 (ip), vehicle: saline sonified 94 % of control and 96 % of control | dose: 0.13 mg/kg/injection, schedule: Q01DX009 (ip), vehicle: saline with Tween-80 102 % of control and 105 % of control | dose: 0.25 mg/kg/injection, schedule: Q01DX009 (ip), vehicle: saline sonified 96 % of control and 100 % of control | dose: 0.25 mg/kg/injection, schedule: Q01DX009 (ip), vehicle: saline with Tween-80 107 % of control and 108 % of control and 119 % of control | dose: 0.25 mg/kg/injection, schedule: Q01DX009 (ip), vehicle: suspension in saline 108 % of control | dose: 0.5 mg/kg/injection, schedule: Q01DX009 (ip), vehicle: saline sonified 96 % of control and 101 % of control | dose: 0.5 mg/kg/injection, schedule: Q01DX009 (ip), vehicle: saline with Tween-80 105 % of control and 114 % of control and 119 % of control | dose: 0.5 mg/kg/injection, schedule: Q01DX009 (ip), vehicle: suspension in saline 124 % of control | dose: 0.5 mg/kg/injection, schedule: Q08DX002 (ip), vehicle: saline sonified 98 % of control and 103 % of control | dose: 0.5 mg/kg/injection, schedule: Q08DX002 (ip), vehicle: saline with Tween-80 100 % of control and 119 % of control | dose: 1.0 mg/kg/injection, schedule: Q01DX009 (ip), vehicle: suspension in saline 109 % of control | dose: 1.0 mg/kg/injection, schedule: Q08DX002 (ip), vehicle: saline sonified 108 % of control and 114 % of control | dose: 1.0 mg/kg/injection, schedule: Q08DX002 (ip), vehicle: saline with Tween-80 102 % of control and 113 % of control and 116 % of control | dose: 2.0 mg/kg/injection, schedule: Q08DX002 (ip), vehicle: saline sonified 105 % of control | dose: 2.0 mg/kg/injection, schedule: Q08DX002 (ip), vehicle: saline with Tween-80 123 % of control | dose: 4.0 mg/kg/injection, schedule: Q08DX002 (ip), vehicle: saline with Tween-80 90 % of control and 105 % of control
active: dose: 0.3 mg/kg/injection, schedule: Q01DX009 (ip), vehicle: saline 150 % of control

CC(=O)CC(=O)N1CCCCC1C (configuration not stated)
inactive: [1] 109 % of control | [2] 112 % of control | [3] 110 % of control

COC(=O)C12OCC34C(CC5C(C)=C(O)C(=O)CC5(C)C3C(O)C1O)OC(=O)C(OC(=O)/C=C(\C)C(C)(C)O)C24 (configuration not stated)
inactive: dose: 0.05 mg/kg/injection, schedule: Q01DX009 (ip), vehicle: saline with Tween-80 124 % of control
active: dose: 0.1 mg/kg/injection, schedule: Q01DX009 (ip), vehicle: saline with Tween-80 150 % of control | dose: 0.2 mg/kg/injection, schedule: Q01DX009 (ip), vehicle: saline 159 % of control | dose: 0.4 mg/kg/injection, schedule: Q01DX009 (ip), vehicle: saline with Tween-80 152 % of control | dose: 0.4 mg/kg/injection, schedule: Q01DX009 (ip), vehicle: saline 153 % of control | dose: 0.8 mg/kg/injection, schedule: Q01DX009 (ip), vehicle: saline with Tween-80 172 % of control | dose: 1.6 mg/kg/injection, schedule: Q01DX009 (ip), vehicle: saline with Tween-80 161 % of control

O=C(Oc1cccc(OC(=O)c2ccc(Cl)cc2)c1)c1ccc(Cl)cc1
inactive: [1] 89 % of control | [2] 89 % of control

O=c1cc2oc3c(O)c(O)ccc3c3c4ccccc4c(=O)c(c1)c23
inactive: dose: 12.5 mg/kg/injection, schedule: Q01DX009 (ip), vehicle: saline 103 % of control | dose: 25.0 mg/kg/injection, schedule: Q01DX009 (ip), vehicle: saline 90 % of control

COc1cc2cnccc2cc1O
inactive: dose: 12.5 mg/kg/injection, schedule: Q01DX009 (ip), vehicle: water 104 % of control | dose: 25.0 mg/kg/injection, schedule: Q01DX009 (ip), vehicle: water 102 % of control | dose: 50.0 mg/kg/injection, schedule: Q01DX009 (ip), vehicle: water 103 % of control | dose: 100.0 mg/kg/injection, schedule: Q01DX009 (ip), vehicle: water 109 % of control

Cc1ccc(C)c(NC(=O)c2ccccc2Cl)c1
inactive: [1] 118 % of control | [2] 93 % of control | [3] 109 % of control

CC(C)NCC(O)c1ccc(O)c(O)c1 (configuration not stated)
inactive: dose: 17.5 mg/kg/injection, schedule: Q01DX009 (ip), vehicle: Klucel (hydroxypropylcellulose) (HPC) 101 % of control | dose: 35.0 mg/kg/injection, schedule: Q01DX009 (ip), vehicle: Klucel (hydroxypropylcellulose) (HPC) 99 % of control | dose: 70.0 mg/kg/injection, schedule: Q01DX009 (ip), vehicle: Klucel (hydroxypropylcellulose) (HPC) 94 % of control

C/C(=N\O)c1ccccn1
inactive: dose: 50.0 mg/kg/injection, schedule: Q01DX009 (ip), vehicle: other 110 % of control | dose: 100.0 mg/kg/injection, schedule: Q01DX009 (ip), vehicle: other 111 % of control | dose: 200.0 mg/kg/injection, schedule: Q01DX009 (ip), vehicle: other 97 % of control | dose: 400.0 mg/kg/injection, schedule: Q01DX009 (ip), vehicle: other 90 % of control

O=C(CC(O)(C(F)(F)F)C(F)(F)F)CC(O)(C(F)(F)F)C(F)(F)F
inactive: dose: 1.25 mg/kg/injection, schedule: Q04DX003 (ip), vehicle: saline 116 % of control | dose: 2.5 mg/kg/injection, schedule: Q04DX003 (ip), vehicle: saline 122 % of control and 116 % of control

CCCCCCC1CCC(N)CC1 (configuration not stated)
inactive: dose: 12.5 mg/kg/injection, schedule: Q01DX009 (ip), vehicle: Klucel (hydroxypropylcellulose) (HPC) 86 % of control

C#CC1(OCC2CN(c3ccccc3)C(=O)O2)CCCCC1 (configuration not stated)
inactive: dose: 25.0 mg/kg/injection, schedule: Q01DX009 (ip), vehicle: Klucel (hydroxypropylcellulose) (HPC) 93 % of control | dose: 50.0 mg/kg/injection, schedule: Q01DX009 (ip), vehicle: Klucel (hydroxypropylcellulose) (HPC) 95 % of control | [1] 95 % of control | dose: 100.0 mg/kg/injection, schedule: Q04DX003 (ip), vehicle: saline with Tween-80 97 % of control | [2] 102 % of control | dose: 200.0 mg/kg/injection, schedule: Q04DX003 (ip), vehicle: saline with Tween-80 102 % of control | [3] 91 % of control | dose: 400.0 mg/kg/injection, schedule: Q04DX003 (ip), vehicle: saline with Tween-80 100 % of control

Cc1nccc(=O)[nH]1
inactive: dose: 100.0 mg/kg/injection, schedule: Q01DX009 (ip), vehicle: saline 90 % of control | dose: 100.0 mg/kg/injection, schedule: Q04DX003 (ip), vehicle: saline 117 % of control | dose: 200.0 mg/kg/injection, schedule: Q01DX009 (ip), vehicle: saline 107 % of control | dose: 200.0 mg/kg/injection, schedule: Q04DX003 (ip), vehicle: saline 100 % of control

Cc1cc(=O)n2c3c(c(N)ccc13)OC2
inactive: [1] 100 % of control | [2] 92 % of control

Oc1ccccc1C=NCC[N-]CCN=Cc1ccccc1O.[Cu+]
inactive: dose: 0.39 mg/kg/injection, schedule: Q01DX009 (ip), vehicle: Klucel (hydroxypropylcellulose) (HPC) 97 % of control | dose: 0.78 mg/kg/injection, schedule: Q01DX009 (ip), vehicle: Klucel (hydroxypropylcellulose) (HPC) 96 % of control | dose: 1.56 mg/kg/injection, schedule: Q01DX009 (ip), vehicle: Klucel (hydroxypropylcellulose) (HPC) 90 % of control

O=C(CO)c1ccc([N+](=O)[O-])cc1
inactive: dose: 3.12 mg/kg/injection, schedule: Q01DX009 (ip), vehicle: saline with Tween-80 97 % of control and 100 % of control | dose: 6.25 mg/kg/injection, schedule: Q01DX009 (ip), vehicle: saline with Tween-80 103 % of control | dose: 12.5 mg/kg/injection, schedule: Q01DX009 (ip), vehicle: saline with Tween-80 99 % of control and 106 % of control | dose: 25.0 mg/kg/injection, schedule: Q01DX009 (ip), vehicle: saline with Tween-80 100 % of control and 104 % of control | dose: 50.0 mg/kg/injection, schedule: Q01DX009 (ip), vehicle: saline with Tween-80 96 % of control and 108 % of control | [4] 93 % of control and 100 % of control

C[CH2][Sn]([CH2]C)([CH2]C)[O]C(=O)CO
inactive: dose: 1.56 mg/kg/injection, schedule: Q01DX009 (ip), vehicle: saline 97 % of control | dose: 3.13 mg/kg/injection, schedule: Q01DX009 (ip), vehicle: saline 87 % of control

CCOc1ccc(NC(=O)C(C)O)cc1 (configuration not stated)
inactive: [4] 97 % of control | dose: 200.0 mg/kg/injection, schedule: Q01DX009 (ip), vehicle: saline with Tween-80 97 % of control | dose: 400.0 mg/kg/injection, schedule: Q01DX009 (ip), vehicle: saline with Tween-80 91 % of control

Reference: PubChem BioAssay AID192 (DTP/NCI, 2004)
